Experimental data: patent US20050256302A1, “Novel peptides having camp producing activity” (Japan Science and Technology Agency, priority 2002, published 2005)
Where a SMILES comes first, the peptide text is derived from it. Bridges are numbered along the chain shown (N, C = ends).

Key:
LLC-PK1 cells [1] = assay: Incorporation of calcium ion (45Ca) in LLC-PK1 cells; type: cell-based, pig; conditions: 10 minutes
Description: The results are shown in FIG. 5 (incorporation of sodium ion in the absence of EIPA), FIG. 6 (incorporation of sodium ion in the presence of EIPA) and FIG. 7 (incorporation of calcium ion).
Incorporation of calcium ion was conducted as follows. Thus, LLC-PK1 cells were washed with a Hanks' solution (calcium-free Hanks' solution) where concentration of calcium chloride was lowered to 0 mM. Calcium chloride (^45Ca) was added to a calcium-free Hanks' solution on the cells together with CRSP, the cells were washed after 10 minutes to completely wash out ^45Ca contained in the solution outside the cells and radioactivity incorporated into the cells was measured by a liquid scintillation counter.

LLC-PK1 cells [2] = assay: Suppression of cell proliferation (125I-DU incorporation, cell count); type: cell-based, pig; conditions: 125I-DU incorporation and cell count
Description: A solution of each peptide in DMEM in each concentration was added to LLC-PK1 cells, then DMEM (containing 0.1% BSA) which contained bromodeoxyuridine labeled with ^125I (^125I-DU) was added to each well and, after 5 hours, radioactivity incorporated into the nuclei was measured by a gamma-counter to measure the DNA amount synthesized as a result of cell proliferation.
With regard to the number of proliferated cells, each solution of CRSP in DMEM in various concentrations was added to LLC-PK1 cells of 10,000 cells/well, incubation was conducted, the cells on the incubation dish was taken out by a trypsin-EDTA solution and cell numbers were counted using a counting plate.
LLC-PK1 cells were incubated for two days in a DMEM (containing 10% of FCS) on a 24-well collagen plate, once washed with a DMEM and substituted with a DMEM (containing 10% of FCS) containing 0 and 10^−12 to 10^−6 M of CRSP followed by incubating. After 2 hours, a DMEM (containing 0.1% of BSA) containing ^125I-labeled bromodeoxyuridine was added to each well and, after 5 hours, radioactivity incorporated into the nuclei was measured by a gamma-counter whereupon the amount of DNA synthesized as a result of cell proliferation was measured.
Similarly, LLC-PK1 cells of 10,000 cells/well were sown on a 24-well collagen plate and incubated with a DMEM (containing 10% of FCS) for 24 hours. […]

[3] = target: T1, Pig calcitonin receptor (CTR) (Sus scrofa, UniProt P25117); assay: Incorporation of sodium ion (22Na) in OK cells expressing CTR; type: cell-based; conditions: CTR expressed in OK cells
T1 construct: expressed in transfected cells; host or cells: COS-7 (given as rhesus monkey renal cells), vector pcDNA 3.1
T1 sequence (P25117 30-498): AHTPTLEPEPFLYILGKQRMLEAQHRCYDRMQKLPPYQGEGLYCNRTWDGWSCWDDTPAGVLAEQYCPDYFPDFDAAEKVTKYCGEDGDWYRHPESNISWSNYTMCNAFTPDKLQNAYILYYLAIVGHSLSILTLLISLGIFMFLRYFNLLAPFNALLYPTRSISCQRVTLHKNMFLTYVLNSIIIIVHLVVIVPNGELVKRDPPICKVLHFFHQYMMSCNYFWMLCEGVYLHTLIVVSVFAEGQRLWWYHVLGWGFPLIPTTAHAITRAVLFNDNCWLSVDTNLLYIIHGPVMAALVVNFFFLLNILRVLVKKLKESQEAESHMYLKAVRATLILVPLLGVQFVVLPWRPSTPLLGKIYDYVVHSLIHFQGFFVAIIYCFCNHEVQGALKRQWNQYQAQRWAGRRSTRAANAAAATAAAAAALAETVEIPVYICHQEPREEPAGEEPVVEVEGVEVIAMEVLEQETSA
Description: Pig calcitonin receptor (CTR) was introduced into a mammalian expression vector pcDNA 3.1, expressed in rhesus monkey renal cells (COS-7) and production amount of cAMP by stimulation of CRSP was measured by radioimmunoassay. Similarly, CTR was expressed in opossum renal cells (OK cells) and production amount of cAMP by stimulation of CRSP was measured by radioimmunoassay while incorporation of sodium ion was measured by measuring the incorporation of sodium chloride having radioactivity (^22Na) by a gamma-counter. The results are shown in FIG. 10 (changes in cAMP productivity by CRSP stimulation in cells (COS-7) where calcitonin receptor was expressed in a genetic engineering manner), FIG. 11 (changes in cAMP productivity in opossum renal epithelial cells where pig calcitonin receptor (CTR) was expressed) and FIG. 12 (changes in incorporation of sodium ion in opossum renal epithelial cells where pig calcitonin receptor (CTR) was expressed).
Similarly, CTR was expressed in opossum renal cells (OK cells) and production amount of cAMP by CRSP stimulation was measured by radioimmunoassay while incorporation of sodium ion was measured by incorporation of radioactive sodium chloride (^22Na) using a gamma-counter.

[4] = Blood pressure of anesthetized rats; type: in vivo; conditions: rat, 16 nmol/kg from jugular vein
Description: CRSP corresponding to an amount of 16 nmol/kg dissolved in a physiological saline solution was administered at a time within a short period from jugular vein of rat under an anesthetized condition and calcium concentration in the plasma and blood pressure were measured. The results are shown in FIG. 13 (changes in calcium concentration in blood by administration of CRSP) and FIG. 14 (changes in blood pressure by administration of CRSP).
CRSP corresponding to the amount of 16 nmol/kg dissolved in a physiological saline solution was administered at a time within short period from […] of rat under an anesthetized condition.

SMILES: CSCC[C@H](NC(=O)[C@H](CCCCN)NC(=O)[C@@H](NC(=O)[C@@H]1CCCN1C(=O)[C@H](CC(C)C)NC(=O)[C@H](CC(C)C)NC(=O)[C@H](CC(N)=O)NC(=O)[C@H](CO)NC(=O)[C@H](CCCNC(=N)N)NC(=O)[C@@H](NC(=O)[C@H](CCSC)NC(=O)[C@H](CO)NC(=O)CNC(=O)[C@H](CO)NC(=O)[C@H](CCCNC(=N)N)NC(=O)[C@H](CO)NC(=O)[C@H](CC(C)C)NC(=O)[C@H](CC(C)C)NC(=O)CNC(=O)[C@@H](NC(=O)[C@H](CC(C)C)NC(=O)[C@H](CCCNC(=N)N)NC(=O)[C@H](Cc1c[nH]cn1)NC(=O)[C@@H](NC(=O)[C@H](CCSC)NC(=O)[C@@H]1CSSC[C@H](NC(=O)[C@@H](N)CO)C(=O)N[C@@H](CC(N)=O)C(=O)N[C@@H]([C@@H](C)O)C(=O)N[C@@H](C)C(=O)N[C@@H]([C@@H](C)O)C(=O)N1)[C@@H](C)O)C(C)C)C(C)C)[C@@H](C)O)C(=O)NCC(=O)N[C@@H](Cc1ccccc1)C(=O)N[C@@H](CCCCN)C(=O)N[C@H](C(=O)N[C@@H](Cc1ccccc1)C(=O)NCC(N)=O)C(C)C [CRSP] (H-SCNTATCMTHRLVGLLSRSGSMVRSNLLPTKMGFKVFG-NH2; disulfide 2-7)
- incorporation of calcium into cells (LLC-PK1 cells [1]): suppressed
- growth of LLC-PK1 cells (LLC-PK1 cells [2]): suppressing the growth of LLC-PK1 cells
- amyloride-sensitive Na/H co-transporter [3]: activated
- incorporation of sodium into cells [3]: promoted
- blood pressure [4]: no apparent change
